Laboratory results published in patent US20240208950A1, “COMPOSITIONS AND METHODS FOR TREATMENT OF CERVICAL AND OVARIAN CANCER” (SOUTH DAKOTA BOARD OF REGENTS, priority 2021, published 2024).

Legend:
SiHa cells = test: Cell migration (agarose bead, scratch wound), SiHa; format: cell-based, human; conditions: 0 and 48 hours
Experimental: FIGS. 7B and 7D show the effect of ORM-Br on motility potential of CaSki cells (FIG. 7B) and SiHa cells (FIG. 7D) as predicted by agarose bead assay. The images shown in FIGS. 7A-7D represent the migratory cells (MC) in control and ORM-Br treated groups at 0 and 48 hours. In FIGS. 7B and 7D, AB means agarose beads. In FIGS. 7A-7D the images magnification were at 4.
Cell motility was performed by in vitro scratch wound assay. Briefly, cells were seeded in a 12-wells plate and after 80-90% confluency a standardized wound was made using a 200 μL micropipette tip. Cells were then treated with Br-ORM (10 μM) and photographed by phase contrast microscopy. […]
FIG. 14. […] Effect of Br-ORM on cell migration of cervical cancer cells as determined by agarose bead (FIG. 14A), scratch wound healing (FIG. 14B), and Boyden chamber assay (FIG. 14C). […] Closure of wound was determined and photographed using phase contrast microscopy. […] Bar graph represent the quantification of migrated CaSki cells of control and Br-ORM treated groups (FIG. 14C(ii)). […] Effect of Br-ORM treatment on invasion of CaSki cells as determined by a commercially available kit (BD Biosciences) as described in materials and methods. In brief, 24 hours post-treatment of Br-ORM, invaded cells were fixed, stained and counted. […] Bar graph represent the quantification of invaded CaSki cells of control and Br-ORM treated groups (FIG. 14D(ii)). […]

CaSki cells = test: Cell proliferation assay (MTS), CaSki; format: cell-based, human; conditions: 1-20 μM, 24 hours
Experimental: The effect of Br-ORM on CaSki and SiHa cells proliferation was performed using the MTS assay. Briefly, cells were seeded at a density of 5×10^3 cells per well in 96 well plate and allowed to stand overnight at 37° C. and 5% CO2 incubator. Next day, cells were treated with different concentrations of Br-ORM (1, 5, 10 and 20 μM). DMSO was used as a vehicle for the treatment of control cells. Twenty four hours post-treatment, 20 μL of MTS reagent (5 mg/mL) was added in each well and further incubated the plate for 2 hours in a CO2 incubator. Absorbance was taken after 2 hours at […] (SpectraMax M2 spectrophotometer, Molecular Devices, Sunnyvale, CA, USA). The experiment was performed in triplicates. Results were represented as percent viability with respect to the control group. […]
FIG. 13. […] Cell viability was assessed by MTS assay. […] Bar graphs indicating quantification of colony formation in CaSki (i), and SiHa (ii) cells of cervical cancer with respect to vehicle control. […] Briefly, cervical cancer cells were treated with Br-ORM (10 μM) for 24 hours and the apoptosis inducing effect of Br-ORM was analyzed by Annexin V staining. […] The equal loading of protein in each lane was determined by probing the blots with β-actin antibody (FIG. 13F). […] Br-ORM arrests cell cycle in G1/S phase as determined by flow cytometry. […]

COc1ccc2c(c1)OC(C)(C)C(c1ccc(Br)cc1)C2c1ccc(OCCN2CCCC2)cc1 (stereo not shown) [ORM-Br]
cell migration / motility (SiHa cells): inhibits the migration | cell migration / motility (SiHa cells; listed as Br-ORM): dose dependent inhibition of migration abilities | cell viability / growth (CaSki cells): inhibits the growth | cell viability / growth (CaSki cells; listed as Br-ORM): dose dependently inhibited the cell viability
